Test results reported in US7144867B2, “Anticancer glycoside compounds” (priority 2004, dated 2006).

Legend:
AsPC-1 cells [1] = assay: Annexin V assay; type: cell-based, human; details: 4 μg/mL, within 3 hours
Procedure: Annexin V assay. […] The cells were then rinsed with PBS and 500 μL of assay buffer once. Then, 200 μL of assay buffer, 4 μL of annexin-V FITC, and 20 μL of propidium iodide were added to each coverslip. The coverslip were then incubated at room temperature for 15 min in the dark and washed once with PBS. Cells were finally viewed under fluorescence microscope using a dual filter set for FITC and rhodamine, and pictures were taken using a Kodak DC 120 digital zoom camera (Eastman Kodak Company, Rochester, N.Y.).

AsPC-1 cells [2] = assay: TUNEL assay; type: cell-based, human; details: 4 μg/mL, 72 hours; control 2.4%, P<0.001
Procedure: Terminal deoxynucleotidyl transferase-mediated deoxyuridine triphosphate nick-end labeling (TUNEL) assay. The assay was carried out for terminal incorporation of fluorescein 12-dUTP by terminal deoxynucleotidyl transferase into fragmented DNA in cancer cells (TUNEL assay kits, Promega, Madison, Wis.). Cells were cultured to 50%–60% confluence in T75 flasks in serum-free conditions for 24 hours and then treated with or without 4 μg/mL Frondoside A for 72 hours. Cells were then trypsinized and fixed in 1% methanol-free formaldehyde-PBS for 15 minutes. At the end of treatment, cells were harvested with trypsin-EDTA solution to produce a single cell suspension. Cells were then pelleted by centrifugation and washed twice with PBS. Cell pellets were suspended in 0.5 ml PBS and fixed in ice-cold 70% ethanol at 4° C. Fixed cells were centrifuged at 300×g for 10 minutes and pellets were washed with PBS. After resuspension with 1 ml PBS, cells were incubated with 10 μL of RNase I (10 mg/mL) and 100 μL of propidium iodide (400 μg/mL; Sigma) and shaken for 1 hour at 37° C. in the dark. Samples were analyzed by flow cytometry. Laser flow cytometry was used to quantify the green fluorescence of fluorescein-12-dUTP incorporated against the red fluorescence of propidium iodide.

## COC1C(O)C(CO)OC(OC2C(O)COC(OC3C(C)OC(OC4C(OC5CCC6(C)C7CCC89C(=O)OC(C)(CCCC(C)C)C8C(OC(C)=O)CC9(C)C7=CCC6C5(C)C)OCC(OS(=O)(=O)[O-])C4O)C(OC4OCC(O)C(O)C4O)C3O)C2O)C1O.[Na+] [Frondoside A, 3-O-methyl-β-D-glucopyranosyl-(1→3)-β-D-xylopyranosyl-(1→4)-[β-D-xylopyranosyl-(1→2)]-β-D-quinovopyranosyl-(1→2)-4-O-sodium sulfate-β-D-xylopyranosyl-3-O-holost-7(8)-en-3β-ol-16β-O-acetate]
AsPC-1 cells [1]
  Annexin V binding: Annexin V binding was observed
AsPC-1 cells [2]
  TUNEL staining: 36.1%
